Where a name gives a salt, the structure may show the parent alone.
Columns and labels:
formalin-induced pain = assay: formalin test; assay type: in vivo, mice; conditions: mice; for duration of the nociceptive response, acute phase of the formalin test: i.p. 30 min before test, 0–5 min after formalin; for influence on the analgesic effect of E153, late phase of the formalin test: 15 mg/kg given 10 min before E153 (15 mg/kg i.p.); for duration of the nociceptive response, late phase of the formalin test: single administration alone, 15 mg/kg
Description: The mice received an intraperitoneal (i.p.) injection of either the test compound or a control solution. After 30 min, a 20 μL injection of a 2.5% formalin solution was administered into the right hind paw. Right after the formalin injection, the animals were individually placed into glass containers and observed for the following 30 min. During specific time intervals (0–5 min, referred to as Phase I, and 15–30 min, referred to as Phase II, post-formalin injection), the time spent by the animals licking or biting the injected paw was recorded..

[1] = test system: histamine-induced pruritus; assay: histamine-induced pruritus; assay type: in vivo; conditions: mice; for influence on the antipruritic activity of E153, histamine-induced pruritus: 15 mg/kg given 10 min before E153 (5 mg/kg i.p.)
Description: (§1) The area (around 2 cm^2) of the nape of mice was shaved at least 2 days prior to experiments. On the day of the experiment, each mouse was individually placed in plastic chambers (15 × 15 × 30 cm). After the 30 min period of habituation, the mice received an intradermal (i.d.) injection of histamine dihydrochloride (10 µmol/site), chloroquine (CQ, 200 µg/site), or SLIGRL-NH2 (40 nmol/site), which were dissolved in physiological saline and administrated at the constant volume of 20 μL. Immediately following the injection, scratching (series of movements considered as a single scratching bout usually consisted of three single scratches) of the injected site by the hind paw was counted for 60 min, 30 min, or 45 min after histamine, CQ, and SLIGRL-NH2 injection, respectively.

CQ-induced pruritus = assay: chloroquine (CQ)-induced pruritus; assay type: in vivo, mice; conditions: mice, 10 mg/kg i.p.; 30 min observation
Description: as §1

SLIGRL-induced pruritus = assay: SLIGRL-induced pruritus; assay type: in vivo; conditions: mice, 10 mg/kg i.p.; 45 min observation
Description: as §1

Cc1cc(OCCN2CCOCC2)nn1-c1ccc2ccccc2c1.Cl [Compound S1RA, 4-[2-[[5-methyl-1-(2-naphthalenyl)1H-pyraol-3-yl]oxy]ethyl]-morpholine hydro-chloride]
activity in the late phase of the formalin test (formalin-induced pain; 15 mg/kg i.p.): inactive | paw licking and biting behavior, late phase of the formalin test (formalin-induced pain; 30 mg/kg i.p.): showed activity | nociceptive response, late phase of the formalin test, joint administration (formalin-induced pain; JNJ 5207852 10 mg/kg + S1RA 30 mg/kg i.p.): did not affect the activity of the compounds | duration of the nociceptive response, acute phase of the formalin test (formalin-induced pain): lack of activity

c1cc(OCCCN2CCCCC2)ccc1CN1CCCCC1 [JNJ 5207852, 1-[3-[4-(1-piperidinylmethyl)phenoxy]propyl]piperidine hydrochloride]
activity in the late phase of the formalin test (formalin-induced pain; 10 mg/kg i.p.): inactive | paw licking and biting behavior, late phase of the formalin test (formalin-induced pain; 15 and 30 mg/kg i.p.): significantly attenuated | nociceptive response, late phase of the formalin test, joint administration (formalin-induced pain; JNJ 5207852 15 mg/kg + S1RA 15 mg/kg i.p., compared to saline): significantly stronger decrease in nociceptive response | duration of the nociceptive response, acute phase of the formalin test (formalin-induced pain): lack of activity

Cl.O=C(OCCN1CCOCC1)C1(c2ccccc2)CCCCC1 [PRE-084, 2-[4-morpholinethyl]1-phenylcyclohexanecarboxylate hydrochloride]
influence on the antipruritic activity of E153, histamine-induced pruritus [1]: significant decrease in E153 activity | scratching behavior, histamine-induced pruritus ([1]; administered alone, 15 mg/kg): did not alter animal scratching behavior | influence on the analgesic effect of E153, late phase of the formalin test (formalin-induced pain): antagonized the effects of test compound | duration of the nociceptive response, late phase of the formalin test (formalin-induced pain): did not change

C[C@@H](N)Cc1c[nH]cn1 [RAMH, (R)-(-)-α-methylhistamine]
influence on the antipruritic activity of E153, histamine-induced pruritus [1]: had no effect | scratching behavior, histamine-induced pruritus ([1]; administered alone, 15 mg/kg): did not alter animal scratching behavior | influence on the analgesic effect of E153, late phase of the formalin test (formalin-induced pain): antagonized the effects of test compound | duration of the nociceptive response, late phase of the formalin test (formalin-induced pain): did not change

COc1ccc(CN(CCN(C)C)c2ccccn2)cc1 [pyrilamine, reference compound]
number of scratch bouts, CQ-induced pruritus (CQ-induced pruritus): not effective | scratch bouts, SLIGRL-induced pruritus (SLIGRL-induced pruritus): not effective | scratching behavior, histamine-induced pruritus ([1]; i.p. 30 min before i.d. histamine): significantly reduced scratching behavior
